# Results taken from patent US8153784B2, “Imaging of enzyme activity” (The General Hospital Corporation, priority 2004, dated 2012).
# Values joined by “and” are separate entries in the source; they are usually repeats but may differ in a detail not shown here. Equal entries are not always repeated. “Also recorded” adds a separate entry of the source.
# Molecular target: T1, human MPO embedded in Matrigel (Homo sapiens, UniProt P05164)
# T1 construct: purchased BioDesign, Inc
# T1 sequence (P05164 49-745): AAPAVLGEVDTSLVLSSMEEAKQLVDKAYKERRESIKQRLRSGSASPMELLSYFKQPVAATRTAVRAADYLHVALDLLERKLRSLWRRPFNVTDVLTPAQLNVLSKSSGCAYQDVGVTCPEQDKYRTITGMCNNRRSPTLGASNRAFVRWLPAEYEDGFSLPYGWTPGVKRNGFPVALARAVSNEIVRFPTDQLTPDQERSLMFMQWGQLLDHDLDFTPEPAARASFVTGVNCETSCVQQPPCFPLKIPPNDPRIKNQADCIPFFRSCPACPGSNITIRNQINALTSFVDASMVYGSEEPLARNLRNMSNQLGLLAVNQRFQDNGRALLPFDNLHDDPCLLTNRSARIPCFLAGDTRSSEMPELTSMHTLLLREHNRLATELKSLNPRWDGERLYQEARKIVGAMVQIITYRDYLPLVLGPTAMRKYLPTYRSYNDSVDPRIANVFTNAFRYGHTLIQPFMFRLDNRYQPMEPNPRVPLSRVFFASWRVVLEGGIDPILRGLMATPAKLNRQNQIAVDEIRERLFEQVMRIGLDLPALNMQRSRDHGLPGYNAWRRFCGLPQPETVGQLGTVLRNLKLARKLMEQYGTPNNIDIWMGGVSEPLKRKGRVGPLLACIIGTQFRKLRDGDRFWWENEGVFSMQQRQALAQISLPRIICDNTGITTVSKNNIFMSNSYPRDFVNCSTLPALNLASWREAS
# Assay: MPO/Matrigel implant mouse model, T1-weighted MR imaging
# Format: in vivo
# Details: for enhancement of MPO implant compared with control implant: right MPO/Matrigel vs left control; for enhancement of MPO implant compared with control implant / relative CNR before wash-out/decrease of the control side: 1.5 T; for maximum relative CNR ratio (CNR(right)/CNR(left)): MPO/Matrigel right vs control left
# Description: To evaluate the monomeric substrates in vivo, we devised a mouse model that harbored 400 μL of Matrigel basement membrane matrix gel mixed 1:1 by volume with a solution containing 15 U of human MPO and glucose oxidase (as a source of hydrogen peroxide) that was injected into the right flank of the mouse. The left flank was injected with the enzyme-free Matrigel mixture. We subsequently performed T1-weighted MR imaging after the intravenous injection of Gd-DTPA-diSer substrate at the dose of […].
# The MR imaging experiments were performed on a 1.5 T GE Excite scanner and a 4.7 T Bruker Pharmascan scanner. For all MR imaging experiments, precontrast T2-(TR=2000, TE=100, ETL=8, NEX=4, fast spin echo sequence) and T1-weighted images (TR=500, TE=11, NEX=4, spin echo sequence) with fat saturation were initially performed to locate the gels or area of inflammation. The substrates (0.3 mmol/kg) were subsequently injected via the tail vein of the mouse. The mouse was immediately imaged after the injection of the contrast agent using multiple T1-weighted sequences with fat saturation for at least 3 hours.
# Ten-week old C57BL6 male mice were obtained from Jackson Laboratories. A total of 22 mice were used for the study. • 1. MPO/Matrigel imaging experiments: Matrigel™ (Beckton-Dickinson), a […] basement membrane matrix gel was used to immobilize human MPO and glucose oxidase (to supply H2O2 required for detecting MPO oxidative activity, Calbiochem). This was chosen to reflect deposits of human MPO in inflamed tissue in a mouse model. 400 μL of a mixture of Matrigel™ and MEM (Cambrex) was injected slowly into the thighs of each mouse one hour prior to imaging. The right thigh mixture also contained 15 U of MPO and 4 U of glucose oxidase (Calbiochem), while the left thigh mixture contained no enzyme and thus serves as an internal control. A total of 15 mice were used (3 mice each for 5-HT-DOTA(Gd), bis-5-HT-DTPA(Gd), bis-5-HT-DTPA-^111In, bis-tyramide-DTPA(Gd), and DTPA(Gd)). • 2. LPS/Matrigel experiments (n=3): This model was developed to induce endogeneous mouse MPO secretion and activation. 200 μL total volume Matrigel containing 10% heparin was injected slowly into the thighs of the mice 4 days prior to imaging. The right-sided mixture also contained E. coli lipopolysaccharide (LPS) at 10 μg/mL. One mouse was sacrificed for immunohistochemistry. • 3. Myositis experiments (n=4): LPS at 100 μg/mL in PBS was injected into each mouse intramuscularly in the right flank to produce myositis. The mice are imaged 24 hours after injection.
# For normalized signal intensity measured on T1-weighted images, mean±standard deviation (SD) values were calculated in regions of interest (ROI). Contrast-to-noise (CNR) ratios were computed for each ROI according to the formula
SMILES,"enhancement of MPO implant compared with control implant (mice, listed as bis-tyramide-DTPA(Gd))",enhancement of MPO implant compared with control implant (mice),maximum relative CNR ratio (CNR(right)/CNR(left)) (mouse),"maximum relative CNR ratio (CNR(right)/CNR(left)) (mouse, listed as serotonin-DOTA-Gd^3+ complex)","relative CNR increase before significant wash-out of the control side (mice, 4.7 T)","maximum relative CNR increase (mice, at 240 minutes (washout from control implant))","maximum relative CNR increase (mice, in the first 143 minutes)",relative CNR before wash-out/decrease of the control side (mouse),"relative CNR before wash-out/decrease of the control side (mouse, listed as bis-5-HT-DTPA(Gd))","relative CNR ratio (mouse, at 185 minutes)","increase in the contrast-to-noise ratio, right (MPO-containing) vs left (control) flank (mouse, i.v. 0.3 mM/Kg, over 3 hours post injection)"
O=C([O-])CN(CCN(CC(=O)[O-])CC(=O)NCCc1ccc(O)cc1)CCN(CC(=O)[O-])CC(=O)NCCc1ccc(O)cc1.[Gd+3] [1Gd^3+],did not result in significantly increased enhancement; also recorded: did not demonstrate significantly increased enhancement,–,–,–,–,–,–,–,–,–,–
"CC(C(=O)NCC(=O)NCCc1c[nH]c2ccc(O)cc12)N1CCN(CC(=O)[O-])CCN(CC(=O)[O-])CCN(CC(=O)[O-])CC1.[Gd+3] (stereo not shown) [5-HT-DOTA(Gd), Glycylmethyl DOTA(Gd) 5-Hydroxytryptamide]",–,significantly increased enhancement,1.7,1.72,–,–,–,–,–,–,–
O=C([O-])CN(CCN(CC(=O)[O-])CC(=O)NCCc1c[nH]c2ccc(O)cc12)CCN(CC(=O)[O-])CC(=O)NCCc1c[nH]c2ccc(O)cc12.[Gd+3] [2Gd^3+],–,significantly increased enhancement,1.72 and 2.5,–,1.8 fold,2.5 times,1.9 times,1.7-1.8,1.9,2.0,1.7-2.0 fold
